From US20200022995A1, “Novel Immunodulating Small Molecules” (AyuVis Research, Inc., priority 2018, published 2020) come the findings set out here.

Series [1] has as its target TLR4 (Homo sapiens, UniProt O00206). The series is described as follows: TLR4 inhibitory and activating activity in THP-1 cells. The class given is cell-based. Further details: endogenous in cells; host or cells: THP-1 monocytes, PMA-stimulated.
For series [2], the system named is THP-1 cells. Briefly: Monocyte differentiation, phagocytosis and intracellular killing of Pseudomonas aeruginosa in THP-1 cells. The format is cell-based, human. The text has this: Two of these compounds 8 and 32 stimulated monocyte differentiation into macrophages, increased phagocytosis of Pseudomonas aeruginosa (FIG. 18) and increased intracellular killing of bacteria (FIG. 19). These compounds have potential to be used as vaccine adjuvants and in combination with existing antibiotic for prophylactic treatment such as in cystic fibrosis patients.

Series [3] has as its system hPBMC. Briefly: Cytotoxicity in hPBMC (MTT). The class given is cell-based, human. To be noted: 0.1, 1.0, 10, 100 and 1000 μM, 24 h. Here is the method:
The cells were treated with compounds and incubated for 24 h. Cell viability was assessed using MTT cell proliferation kit (Promega). All the compounds were not toxic to hPMBC (FIG. 12).

Series [4] deals with HUVECs. Briefly: Cytotoxicity in HUVECs (MTT). The class given is cell-based, human. To be noted: 100 μM, 24 h. Here is the method: Selected TLR2/4 antagonist compounds 2, 6, 7, 8, 14, 17 and 32 were evaluated for cytotoxicity in HUVECs at 100 μM concentration. The cells were treated with compounds and incubated for 24 h. Cell viability was assessed using MTT cell proliferation kit (Promega). All the compounds were not toxic to HUVECs (FIG. 15).

In series [5] the test system is HUVECs. The series is described as follows: Anti-angiogenic activity, VEGF induced tube formation in HUVECs. The class given is cell-based, human. To be noted: VEGF 100 ng/mL. Here is the method:
Selected TLR2/4 antagonist compounds 2, 6, 7, 8, 14, 17 and 32 were evaluated for anti-angiogenic activity using the Tube Formation kit (Cat #3470-096-K). VEGF (100 ng/mL) was used as positive control. These compounds have potential applications in diseases associated with pathological angiogenesis such as solid tumor, […], diabetic retinopathy as well as AMD.

Series [6] relates to neonatal pups with BPD. The series is described as follows: Hyperoxia mouse model of BPD (newborn pups). The class given is in vivo. To be noted: for lung injury in neonatal pups with BPD: mouse model of BPD; for TLR4 inhibition in an in vivo model system: neonatal pups with BPD; for lung architecture: saline IV and nanosuspension IN. The text has this: Neonatal mice and humans undergo similar stages of lung development but differ with respect to the duration of each stage and its temporal relationship to gestational age. The lungs of the mouse born at term are in the saccular stage and are surfactant sufficient; this can be considered somewhat akin to a human preterm neonate in the same stage of lung development that has been exposed to a full complement of antenatal steroids (which is known to enhance surfactant production). In terms of mimicking the human condition, the most successful hyperoxia models are those that limit exposure to hyperoxia to the saccular stage of pulmonary development. The mouse BPD model involves exposing newborn mice (postnatal day 1 or PN1) to 100% oxygen till PN4 followed by recovery in room air (RA) for another 10 days.
After the recovery period, their lungs were harvested and processed for quantitative PCR, western blotting, histopathology and ELISA.
Each of the compounds 3, 8 or 32 encapsulated in PLGA nanoparticles referred as 3NP, 8NP and 32NP was instilled intranasally (IN) as nanosuspension to newborn pups on PN2 and PN4 at different doses (FIG. 28). After the recovery period, their lungs were harvested and processed for quantitative PCR, western blotting and histopathology and ELISA.
BPD is characterized by large simplified alveoli, inflammation, increased cell death, decreased cell proliferation, dysmorphic capillary configuration, and variable interstitial cellularity and/or fibroproliferation. […] This is determined by measuring the alveolar chord length, septal thickness and radial alveolar count (RAC). In BPD, the alveolar area increases which is characterized by increase in the diameter of the alveolar sacs, the septa become thickened (thus interfering in gaseous exchange) and the RAC, a parameter used to assess the complexity of terminal respiratory unit by pulmonologists, decreases as a result of arrested lung development.

Series [7] concerns normal lung epithelial cells (AT-1). To be noted: 1 mM and 2 mM, 48 h. Here is the method: Compounds 8, 17, 29 and 35 were tested for cytotoxicity in normal lung epithelial cells (AT-1) at concentrations of 1 mM and 2 mM. The cells were treated with compounds and incubated for 48 h. Cell viability was assessed using tryptan blue live/dead assay.
The test system of series [8] is P. aeruginosa (ATCC-10145 GFP) infected skin wounds. Briefly: Murine skin wound infection with P. aeruginosa. The class given is in vivo, C57BL/6 mice. Here is the method: Five groups of C57BL/6 mice (8-10 weeks old, n=4) were wounded on the dorsal surface. 25 ul containing 10^6 CFU/mL P. aeruginosa in a PBS suspension were pipetted onto the wound and allowed to absorb for at least 3 min. […] Subsequently and for the next 13 days, infected wounds were treated each alternate day with colistin, or with test compounds.

Sequence of TLR4 (O00206 24-839): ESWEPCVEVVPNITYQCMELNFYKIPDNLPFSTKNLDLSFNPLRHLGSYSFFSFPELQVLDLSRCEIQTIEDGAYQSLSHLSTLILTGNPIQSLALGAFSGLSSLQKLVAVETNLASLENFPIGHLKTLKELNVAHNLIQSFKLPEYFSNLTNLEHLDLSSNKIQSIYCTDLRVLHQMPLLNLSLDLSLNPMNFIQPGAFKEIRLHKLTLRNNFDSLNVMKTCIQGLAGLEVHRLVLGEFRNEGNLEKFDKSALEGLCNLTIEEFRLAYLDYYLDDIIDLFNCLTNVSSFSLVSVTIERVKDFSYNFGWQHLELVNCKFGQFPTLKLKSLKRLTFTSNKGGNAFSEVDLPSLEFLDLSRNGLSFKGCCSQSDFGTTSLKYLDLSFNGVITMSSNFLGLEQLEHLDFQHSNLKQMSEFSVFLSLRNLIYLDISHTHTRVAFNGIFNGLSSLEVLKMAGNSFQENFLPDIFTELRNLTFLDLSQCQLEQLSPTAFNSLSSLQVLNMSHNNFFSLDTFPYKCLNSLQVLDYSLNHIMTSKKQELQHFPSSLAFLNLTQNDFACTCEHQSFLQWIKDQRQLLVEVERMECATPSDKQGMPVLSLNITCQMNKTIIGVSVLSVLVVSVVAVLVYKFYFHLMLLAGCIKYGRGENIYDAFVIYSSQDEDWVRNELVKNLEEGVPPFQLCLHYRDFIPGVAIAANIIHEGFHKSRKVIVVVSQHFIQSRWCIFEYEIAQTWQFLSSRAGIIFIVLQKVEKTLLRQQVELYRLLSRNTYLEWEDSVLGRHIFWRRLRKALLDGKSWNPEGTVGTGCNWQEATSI

For the molecule `CC(=O)NC1[C@H](Oc2cccc3sc(NC(=O)C(C)(C)C)nc23)O[C@H](CO)[C@@H](O)[C@@H]1O` (single isomer, unassigned) [Compound 23], the “TLR2/4 antagonist or TLR4 agonist activity as shown in Table-1” value in series [1] is “TLR4 agonists”.
As to `CC(=O)NC1[C@H](Oc2ccc(N3CCN(C(C)=O)CC3)cc2)O[C@H](CO)[C@@H](O)[C@@H]1O` (single isomer, unassigned) [Compound 28], the “TLR2/4 antagonist or TLR4 agonist activity as shown in Table-1” value in series [1] was “TLR4 agonists”.
Consider `CC(=O)NC1[C@H](Oc2ccc3c(C)cc(=O)oc3c2)O[C@H](CO)[C@@H](O)[C@@H]1O` (single isomer, unassigned) [Compound 29], for which, in series [1], the “TLR2/4 antagonist or TLR4 agonist activity as shown in Table-1” value is “TLR4 agonists”.
With `CC(=O)NC1[C@H](Oc2ccc(B3OC(C)(C)C(C)(C)O3)cc2)O[C@H](CO)[C@@H](O)[C@@H]1O` (single isomer, unassigned) [Compound 32, p-Pinacoloneboronatephenyl 2-acetamido-2-deoxy-β-D-glucopyranoside], in series [2], the “monocyte differentiation into macrophages” value was “stimulated”. For the same molecule, the “intracellular killing of bacteria” value in series [2] (Pseudomonas aeruginosa, THP-1 cells) is reported as “increased”. In addition, the “phagocytosis of Pseudomonas aeruginosa” value in series [2] (THP-1 cells) is reported as “increased”. Moreover, in series [3], the “cytotoxicity in hPBMC” value is “not toxic”. For the same molecule, the “cytotoxicity in HUVECs” value in series [4] was “not toxic”. Further, the “VEGF induced tube formation” value in series [5] is “significantly deceased”. Further, in series [6], the “lung injury in neonatal pups with BPD” value is recorded as “prevent lung injury”, the “TLR4 inhibition in an in vivo model system” value is given as “inhibit TLR4” and the lung architecture entry is given as “restored”.
Consider `CC(=O)NC1C(Oc2ccc3nonc3c2)OC(CO)C(O)C1O` (stereo in doubt) [Compound 17, N-((2S,3R,4S,5S,6R)-2-(benzo[c][1,2,5]oxadiazol-5-yloxy)-4,5-dihydroxy-6-(hydroxymethyl)tetrahydro-2H-pyran-3-yl)acetamide], for which the “cytotoxicity in hPBMC” value in series [3] is reported as “not toxic”. Further, the “cytotoxicity in HUVECs” value in series [4] is listed as “not toxic”. Further, the “VEGF induced tube formation” value in series [5] is listed as “significantly deceased”. In series [1], the “TLR2/4 antagonist or TLR4 agonist activity as shown in Table-1” value was “TLR4 agonists”.
Regarding `CC(=O)N[C@@H]1[C@@H](OC(C)=O)[C@H](OC(C)=O)[C@@H](COC(C)=O)O[C@H]1NC(=O)c1ccc(O[C@@H]2O[C@H](CO)[C@@H](O)[C@H](O)[C@H]2NC(C)=O)cc1` [Compound 2], the “cytotoxicity in hPBMC” value in series [3] was “not toxic”. Also, the “cytotoxicity in HUVECs” value in series [4] is “not toxic”. Besides, the “VEGF induced tube formation” value in series [5] is on record as “significantly deceased”.
Consider `CC(=O)N[C@@H]1[C@@H](O)[C@H](O)[C@@H](CO)O[C@H]1NC(=O)c1ccc(O[C@@H]2O[C@H](CO)[C@@H](O)[C@H](O)[C@H]2NC(C)=O)cc1` [Compound 3], for which, in series [6], the “lung injury in neonatal pups with BPD” value was “prevent lung injury”, the “TLR4 inhibition in an in vivo model system” value is given as “inhibit TLR4” and the lung architecture result is “restored”.
For `CC(=O)N[C@H]1[C@H](Oc2ccc(C(=O)Nc3ccc(O[C@@H]4O[C@H](COC(C)=O)[C@@H](OC(C)=O)[C@H](OC(C)=O)[C@H]4NC(C)=O)cc3)cc2)O[C@H](CO)[C@@H](O)[C@@H]1O` [Compound 6], the “cytotoxicity in HUVECs” value in series [4] is listed as “not toxic”. Besides, the “VEGF induced tube formation” value in series [5] is “significantly deceased”.
Regarding `CC(=O)N[C@H]1[C@H](Oc2ccc(NC(=O)c3ccc(O[C@@H]4O[C@H](CO)[C@@H](O)[C@H](O)[C@H]4NC(C)=O)cc3)cc2)O[C@H](CO)[C@@H](O)[C@@H]1O` [Compound 7], in series [3], the “cytotoxicity in hPBMC” value is reported as “not toxic”. For the same molecule, the “cytotoxicity in HUVECs” value in series [4] is listed as “not toxic”. Besides, the “VEGF induced tube formation” value in series [5] was “significantly deceased”.
Consider `CC(=O)N[C@H]1[C@H](Oc2ccc(C#N)cc2)O[C@H](CO)[C@@H](O)[C@@H]1O` [Compound 14, p-Cyanophenyl 2-acetamido-2-deoxy-β-D-glucopyranoside], for which, in series [3], the “cytotoxicity in hPBMC” value is “not toxic”. In series [4], the “cytotoxicity in HUVECs” value is reported as “not toxic”. In addition, the “VEGF induced tube formation” value in series [5] was “significantly deceased”.
`CC(=O)N[C@H]1[C@H](Oc2ccc3c(C)cc(=O)oc3c2)O[C@H](COS(=O)(=O)O)[C@@H](O)[C@@H]1O` [Compound 30]: in series [1], the “TLR2/4 antagonist or TLR4 agonist activity as shown in Table-1” value is given as “TLR4 agonists”.
For the molecule `COc1ccc(OC2OC(CO)C(O)C(O)[C@@H]2NC(C)=O)cc1` (stereo partly shown) [Compound 38], the “TLR2/4 antagonist or TLR4 agonist activity as shown in Table-1” value in series [1] is given as “TLR4 agonists”.
Turning to `CC(=O)N[C@@H]1C(Oc2ccc(Cl)cc2)OC(CO)C(O)C1O` (stereo partly shown) [Compound 39], the “TLR2/4 antagonist or TLR4 agonist activity as shown in Table-1” value in series [1] is “TLR4 agonists”.
As to `CC(=O)N[C@@H]1C(Oc2ccccc2O)OC(CO)C(O)C1O` (stereo partly shown) [Compound 40], in series [1], the “TLR2/4 antagonist or TLR4 agonist activity as shown in Table-1” value is “TLR4 agonists”.
Take `CC(=O)O[C@H]1C(=O)[C@@]2(C)[C@H]([C@H](OC(=O)c3ccccc3)[C@]3(O)C[C@H](OC(=O)[C@H](O)[C@@H](NC(=O)c4ccccc4)c4ccccc4)C(C)=C1C3(C)C)[C@]1(OC(C)=O)CO[C@@H]1C[C@@H]2O` [Taxol]: the “cytotoxicity in normal lung epithelial cells (AT-1)” value in series [7] is “toxic”.
For colistin [reference compound], in series [8] (25 μl Colistin 4 μg/ml or compound 100 μg/ml, each alternate day), the “wound closure at day 13” value is “complete closure”. The “re-epithelialization and granulation tissue versus controls” value in series [8] (H&E histology, day 13 post-injury) is listed as “significantly enhanced”.
